Assay results reported in patent publication US20150079176A1, “ANTI-OXIDANT SYNERGY FORMULATION NANOEMULSIONS TO TREAT CANCER” (University of Massachusetts Lowell, priority 2005, published 2015).

What was measured:
HTB-20 = HTB-20 cell culture growth (Coulter Counter cell counting); type: cell-based, Human
Method: (§1) Human breast cancer cell lines MCF-7 and HTB-20 were subcultured in flasks accompanied by daily changes of medium comprising RPMI 1640 supplemented with fetal bovine serum (10%, v/v). The cultures were maintained in a humidified chamber at 37° C. with 5% CO2 and 95% air. The cells were harvested at confluency by trypsinzation and suspended at a cell density of 200,000 to 300,000 cells/ml in a small volume of the growth medium to be used.
(§2) In a typical experiment in which the effects of the anti-cancer nanoemulsions on cell growth were to be examined, aliquots of the cell suspension containing about 20,000 to 30,000 cells were replicately plated in dishes containing 3 ml of the growth medium consisting of RPMI 1640 supplemented with charcoal-stripped fetal bovine serum (5%, v/v) and of penicillin-streptomycin (10 units and 10 μg, respectively) and mycostatin (2.5 units/ml) and incubated at 37° C. in the humidified chamber. On day 1 when the cell adhered firmly to the bottom surface of the dishes, the medium was aspirated off and the cells then challenged by the anti-cancer nanoemulsions; groups of replicate dishes received 3 ml of fresh growth medium containing either ASF or tamoxifen at the indicated concentrations. The control groups received only the microfluidized nanoemulsion and ASF or tamoxifen in free solution.
(§3) At various time intervals (i.e., Days 1-17), triplicate dishes were withdrawn for cell counting; after removal of the medium by aspiration, the adhered cells were washed twice with 1 ml of Eagles balanced salt solution without Ca^2+ and Mg^2+ and dislodged from the dish by trypsinization involving the incubation of 0.5 ml of trypsin-EDTA solution (IX) for 5 minutes at 37° C., after which the protease reaction was stopped by adding 2.5 ml of a “stop” medium consisting of RPMI 1640 and 5% fetal calf serum. The cells were then collected by centrifugation with subsequent suspension in the medium. An aliquot of the suspension was subjected to cell counting using a Coulter Counter (data expressed as 10^6 cells per dish).

MCF-7 = MCF-7 cell culture growth (Coulter Counter cell counting); type: cell-based, Human
Method: as §1, §2, §3

**Q.** For `CC/C(=C(\c1ccccc1)c1ccc(OCCN(C)C)cc1)c1ccccc1` [Tamoxifen In Free Solution, tamoxifen], which cell count (HTB-20; HTB-20, 1 day of incubation) is on record?
**A.** Its cell count is 4 106 cells per dish.

**Q.** And the cell count (HTB-20; HTB-20, 3 days of incubation)?
**A.** Its cell count is 12 106 cells per dish.

**Q.** What about the cell count (HTB-20; HTB-20, 5 days of incubation) of the same compound?
**A.** The cell count was 24 106 cells per dish.

**Q.** What about the cell count (HTB-20; HTB-20, 7 days of incubation) of the same compound?
**A.** The cell count was 28 106 cells per dish.

**Q.** And the cell count (HTB-20; HTB-20, 10 days of incubation)?
**A.** The cell count was 41 106 cells per dish.

**Q.** And the cell count (HTB-20; HTB-20, 12 days of incubation)?
**A.** The cell count was 51 106 cells per dish.

**Q.** What about the “improvement of time-course of tamoxifen-induced apoptosis” value (HTB-20; HTB-20, applied as a microfluidized nanoemulsion vs free solution) of the same compound?
**A.** The value was 2-10 fold.

**Q.** What about the cell count (MCF-7; MCF-7, 5 days of incubation) of the same compound?
**A.** Its cell count is 5 106 cells per dish.

**Q.** And the cell count (MCF-7; MCF-7, 8 days of incubation)?
**A.** Its cell count is 19 106 cells per dish.

**Q.** What about the cell count (MCF-7; MCF-7, 10 days of incubation) of the same compound?
**A.** The cell count was 25 106 cells per dish.

**Q.** What about the cell count (MCF-7; MCF-7, 12 days of incubation) of the same compound?
**A.** The cell count was 33 106 cells per dish.

**Q.** And the cell count (MCF-7; MCF-7, 15 days of incubation)?
**A.** The cell count was 50 106 cells per dish.

**Q.** What about the cell count (MCF-7; MCF-7, 17 days of incubation) of the same compound?
**A.** The cell count was 67.5 106 cells per dish.

**Q.** What about the “improvement of time-course of tamoxifen-induced apoptosis” value (MCF-7; MCF-7, applied as a microfluidized nanoemulsion vs free solution) of the same compound?
**A.** The value was 2-10 fold.
